Assay results published in patent US20020028237A1, “Method for reducing toxicity of a cytotoxic agent” (priority 2000, published 2002).

What was measured:
PPE lesions = experiment: Rat model of Doxil-induced palmar-plantar erythrodysesthesia (PPE); type: in vivo, Sprague-Dawley rats
Experimental: PPE score is the product of Severity Score and percentage of body area affected. Overall PPE score is the sum of scores for each body area.
24 male Sprague-Dawley rats weighing between 250 to 300 grams(g) were intravenously (IV) treated with Doxil® weekly for 5 cycles of administration. The dosage administered was 2.5 mg/kg IV. […] The rats were observed weekly for lesions and scoring (FIG. 1). Scores for severity and percentage affected body area were analyzed and reported on final observation.
Sprague-Dawley rats were treated with amifostine at a dosage of 100 or 200 milligram/kilogram (mg/kg) IV, weekly, approximately 15 minutes before each Doxil® injection or treated with amifostine, 100 mg/kg IV, twice weekly at 15 min before and 3 days after Doxil injection (FIG. 2).

Lewis lung tumors = experiment: Growth of SC Lewis lung tumors
Experimental: Doxil® was administered 4 mg/kg IV, weekly for 3 cycles. Amifostine, 100 or 200 mg/kg IV, was administered before and 1, 2, and 3 days after each Doxil® treatment cycle.

C26 colon tumors = experiment: Survival of mice with IP C26 colon tumors; type: in vivo, BalbC mice; conditions: amifostine 200 mg/kg for five administrations
Experimental: Euthanasia was provided for animals with weight loss greater than 20% or with clinical signs of distress. Survival of female BalbC mice with IP C26 colon tumors treated once with Doxil® (8 mg/kg) (tumor inoculation: 10^6 cells IP). Animals were administered 200 mg/kg of amifostine subcutaneously (SC) prior to Doxil® administration and 1, 2, 4 and 6 days after Doxil® administration (FIG. 4).

[1] = tested on: murine and human xenograft tumor models; conditions: in vivo; cited from earlier work
[2] = tested on: canine non-Hodgkin's lymphoma; conditions: cited from earlier work

Row | Structure (SMILES) | overall PPE severity score (PPE lesions; amifostine 100 mg/kg IV twice weekly, 15 min before and 3 days after Doxil 2.5 mg/kg, p<0.02) | overall PPE severity score (PPE lesions; amifostine 100 mg/kg IV weekly, 15 min before each Doxil 2.5 mg/kg, not significant) | overall PPE severity score (PPE lesions; amifostine 200 mg/kg IV weekly before each Doxil 2.5 mg/kg, p<0.01) | incidence of PPE (PPE lesions; amifostine treatment with liposomal doxorubicin 2.5 mg/kg weekly) | rate of tumor growth (Lewis lung tumors; Doxil 4 mg/kg IV weekly for 3 cycles, amifostine 100 or 200 mg/kg IV before and 1, 2, 3 days after each Doxil) | toxicity to the animals (Lewis lung tumors; amifostine 200 mg/kg days 0-3 of each Doxil treatment cycle) | toxicity (weight loss, lethargy) (C26 colon tumors) | effect of pyridoxine co-treatment on therapeutic effect of liposomal doxorubicin [1] | likelihood of severe PPE and discontinuation, placebo-treated versus pyridoxine-treated dogs (relative risk) ([2]; liposomal doxorubicin 1 mg/kg q 3 weeks x5, pyridoxine 50 mg tid oral 15 weeks, p=0.032) [fold] | remission rates between groups ([2]; pyridoxine versus placebo) | duration of remission ([2]; pyridoxine-treated dogs, placebo 48 days, p=0.084) [days] | survival ([2]; pyridoxine-treated dogs, placebo 130 days, p=0.182) [days]
1 | NCCCNCCSP(=O)(O)O [amifostine] | 4.33 | 7.94 | 3.18 | reduced | did not affect rate of tumor growth | not significantly toxic | Significant toxicity | – | – | – | – | –
2 | Cc1ncc(CO)c(CO)c1O [pyridoxine] | – | – | – | – | – | – | – | does not reduce the therapeutic effect | 4.2 | No difference | 159 | 201
